Measurements published in patent publication US10590121B2, “Kinase inhibitors and methods for making and using” (Rigel Pharmaceuticals, Inc., priority 2017, dated 2020).

Assays:
[1] = tested on: LPS induced IL-23 (p19/p40) in DC cells differentiated from human PBMC; test: IL23-p19 ELISA, dendritic cells (DC differentiated from human PBMC), IFNγ primed, LPS stimulated; assay type: cell-based; details: human PBMC-derived dendritic cells, 1 μg/ml LPS, 18 hours, 10 pt
Procedure: Compound Screening Using DC Cells
1. Differentiation of PBMC's to DC Cells:
Human PBMC cells (400 million) obtained from the vendor were transferred into a T-175 flask containing 15 ml RPMI media (10% FBS) and incubate for 2 hours at 37° C. After 2 hours, the media including floating cells was aspirated out carefully and 12 ml of fresh RPMI media (10% FBS) containing GMCSF (100 ng/ml) and IL4 (20 ng/ml) was added, and the flask was kept in a 37° C. incubator for 7 days.
After 3 days, fresh GMCSF (100 ng/ml) and IL4 (20 ng/ml) were added to the flask and the incubation continued. After 7 days, the fully differentiated cells were harvested by spinning down (1200 rpm/5 min) and aspirating the media. The cells were suspended in fresh RPMI media (10% FBS) containing 50 ng/ml IFNγ (1000 U/ml) and then plated (50K/well in 100 μl) onto a white clear bottom 96 well plate and left in a 37° C. incubator for 24 hours.
2. Addition of Compounds:
After 24 hours incubation, 100 μl of RPMI media was added containing 2× concentrated test compound per well to the above cell-culture media (final concentration becomes 1×) and the plates were pre-incubated for 1 hour at 37° C. before stimulating with LPS.
After 1 hour compound pre-incubation, 10 μl per well of 20× concentrated LPS solution in RPMI media was added to give a final concentration of 1 μg/ml. The mixture was shaken and incubated the plates at 37° C. for an additional 18 hours.
155 μl of the supernatant was harvested from each well carefully (without the tip touching the bottom of the well) and to the remaining 50 μl/well of the cell culture plate was added 50 μl of Cell Titer Glo reagent. The mixture was incubated for 1-2 minutes on a shaker and the plate was read for luminescence intensity to determine the compound cytotoxicity. The cell culture supernatant collected above was used to carry out IL23 ELISA (65 μl-Supernatant) and IL10 ELISA (90 μl-Supernatant) as described below.
Human IL-23 (p19/p40) ELISA Protocol (e-Biosciences)
To 10.5 ml PBS add 50 μl of anti-IL23 (p19) was added capture antibody (2.5 μg/ml). The mixture was mixed well and 100 μl of the coating solution was added to each well of the 96 well white plates from Pierce. The wells were covered and incubated overnight at 4° C.
The anti-IL23 (p19)-antibody-coated plates were washed 2× using TBST (use plate washer) and blocked using 200 μl of 0.5% Casein for 1.5-2 hours at room temperature with shaking.
The plates were washed 2× using TBST and the supernatant was transferred (65 μl/well) to the above pre-blocked/IL23 (p19)-antibody-coated 96 well plate, and incubated at room temperature for 1.5 hours with shaking.
The plates were washed 4× using TBST (plate washer) and 100 μl/well detection antibody solution prepared from 2 μl of biotin labeled anti-IL-12 (p40/p70) antibody in 11 ml 1% BSA/PBS solution (1-5000 dilution) was added. The plates were incubated for 1 hour with shaking at room temperature.
Again, the plates were washed 4× with TBST and 100 μl of HRP labeled Streptavidin (R&D Systems) solution (10 μl/10 ml 1% BSA solution) was added, and the plates were incubated at room temperature for another 45 minutes with shaking.
After 45 minutes, the plates were washed with TBST 4× and 100 ul/well Super Signal ELISA Pico Chemiluminescent Substrate from Pierce (3.5 ml A+3.5 ml B+3.5 ml MQ water) was added. The plates were shaken for 1-2 minutes then read on a plate reader.

[2] = tested on: LPS induced IL23p19 in THP-1 cells; test: LPS Induced IL23p19 in THP-1 Cells (with IFNγ Primed) Assay; assay type: cell-based; details: Homo sapiens; THP-1 cells primed with IFNγ 50 ng/mL, 1 μg/mL LPS, 18 hours, 10 pt; read-out: IL23-p19 ELISA, THP1-IFNy, LPS, 10 pt EC50
Source text: LPS Induced IL23p19 in THP-1 Cells (with IFNγ Primed) Assay
THP-1 Cells (ATCC, Cat # TIB-202), Dimethyl Sulfoxide (DMSO) (Sigma-Aldrich, Cat # D2650), RPMI 1640 (Cellgro, Cat #10-040-CM), Fetal Bovine Serum (Sigma, Cat # F4135), Albumin From Bovine Serum (BSA) (Sigma-Aldrich, Cat # A7906), LPS (Serotype K-235, Sigma, Product Number L 2143), IFNγ (Peprotech, Cat #300-02), Capture antibody: Human IL-23p19 ELISA (e-Bioscience, Cat. #14-7238-85), Detection antibody: Primary Mouse Biotinylated anti-human IL-12 (p40/p70) (e-Bioscience, Cat. #13-7129-85), Secondary HRP-conjugated Streptavidin (R&D Systems, Cat # DY998), 1×PBST Washing Buffer (PBS-Tween tablet) (VWR International, Cat #80058-558), ELISA Blocking Buffer (PBS with 1% BSA), ELISA Dilution Buffer (PBS with 1% BSA), 384 Well Flat-Bottom, MaxiSorp Black Immuno Plates (Thermo Scientific, Cat #12-565-346), 384 Well Flat-Bottom, White Tissue Culture Plates (Thermo Scientific, Cat #12-565-343), Super Signal ELISA Pico Chemiluminescent Substrate (Thermo Scientific, Cat #37070), Cell Titer Glo reagent (Promega, Cat # G7573), Positive control, IKK2VI inhibitor (Calbiochem, Cat #401483), AquaMax 4000 plate washer (Molecular Devices), Luminometer, Wallac Victor2 1420 Multilabel Counter.
On day 1, 50K/well THP-1 cells were seeded and primed with IFNγ (50 ng/mL) in 384-well plates for about 18 hours in RPMI media with 10% FBS. On day 2, the compound was serially diluted in DMSO from 5 mM in 3-fold dilutions, and then diluted 1:125 in RPMI media with 10% FBS. 50 μL/well 2× compound was added to 50 μL/well THP-1 cells (with IFNγ primed) in duplicate in 384 well tissue culture plates. The cells were pre-incubated with compound for 1 hour at 37° C., 5% CO2 before addition of 10 μL/well 11×LPS to give a final concentration of 1 μg/mL LPS. Day 3, after stimulation for 18 hours at 37° C., 5% CO2, the assay plate was centrifuged and 70 μL/well supernatant was harvested. IL-23p19 protein in 70 μL/well of supernatant was measured by sandwich ELISA, and 25 μl/well Cell Titer Glo reagent was added to the remaining cells to measure compound toxicity.
Human IL-23p19 Sandwich ELISA:
Maxisorp immuno ELISA plates were pre-coated with 25 μL/well of anti-IL-23p19 capture antibody (2.5 ug/mL) in PBS overnight at room temperature. After washing with 1×PBST, the plates were blocked using 100 μL/well of 1% BSA in PBS for 2 hours at room temperature. The plates were washed three times with 1×PBST and 70 μL/well supernatant were added. The plates were incubated at room temperature for 2 hours with shaking and washed three times with 1×PBST. 25 μL/well of biotin labeled anti-IL-12 (p40/p70) detection antibody (100 ng/mL) in PBS with 1% BSA was added and the plates were incubated at room temperature for 2 hours with shaking. After washing three times with 1×PBST, 25 μL/well of streptavidin-HRP (1:200) in PBS with 1% BSA was added and the plates were incubated at room temperature for 20 minutes with shaking. The plates were washed three times with 1×PBST and 25 μL/well of Super Signal ELISA Pico Chemiluminescent Substrate were added. The plates were read with a luminometer, and the chemiluminescence values were entered into Athena (Rigel) for curve fitting, EC50 calculation, and database storage.

Structure (SMILES)	EC50 [2] [nM]	EC50 [1] [nM]
CC1(O)CCN(c2cc(N3CCOCC3)ccc2NC(=O)c2ccc(-c3cn[nH]c3)o2)CC1 [I-17, N-(2-(4-hydroxy-4-methylpiperidin-1-yl)-4-morpholinophenyl)-5-(1H-pyrazol-4-yl)furan-2-carboxamide]	216	166
CC1(O)CCN(c2cc(N3CCOCC3)ccc2NC(=O)c2csc(-c3cn[nH]c3)n2)CC1 [I-18, N-(2-(4-hydroxy-4-methylpiperidin-1-yl)-4-morpholinophenyl)-2-(1H-pyrazol-4-yl)thiazole-4-carboxamide]	95.1	106
O=C(Nc1ccc(N2CCOCC2)cc1N1CCC(F)(F)CC1)c1ccc(-c2cn[nH]c2)o1 [I-20, N-(2-(4,4-difluoropiperidin-1-yl)-4-morpholinophenyl)-5-(1H-pyrazol-4-yl)furan-2-carboxamide]	2330	1120
O=C(Nc1ccc(N2CCOCC2)cc1N1CCCC1)c1csc(-c2cn[nH]c2)n1 [I-24, N-(4-morpholino-2-(pyrrolidin-1-yl)phenyl)-2-(1H-pyrazol-4-yl)thiazole-4-carboxamide]	836	794
O=C(Nc1cc(N2CCOCC2)ccc1N1CCCCC1)c1ccc(-c2cn[nH]c2)o1 [I-25, N-(5-morpholino-2-(piperidin-1-yl)phenyl)-5-(1H-pyrazol-4-yl)furan-2-carboxamide]	645	532
O=C(Nc1cc(OCCN2CCOCC2)ccc1N1CCCCC1)c1cccc(-c2cn[nH]c2)n1 [I-27, N-(5-(2-morpholinoethoxy)-2-(piperidin-1-yl)phenyl)-6-(1H-pyrazol-4-yl)picolinamide]	2990	857
O=C(Nc1cc(OCCN2CCOCC2)ccc1N1CCCCC1)c1ccc(-c2cn[nH]c2)o1 [I-28, N-(5-(2-morpholinoethoxy)-2-(piperidin-1-yl)phenyl)-5-(1H-pyrazol-4-yl)furan-2-carboxamide]	189	63.8

The remaining compounds from weak to strong by EC50 [2], led by results:

EC50 [2] [nM]	Structure (SMILES)	EC50 [1] [nM]
3230	O=C(Nc1ccc(N2CCOCC2)cc1N1CCCC1)c1cccc(-c2cn[nH]c2)n1 [I-22, N-(4-morpholino-2-(pyrrolidin-1-yl)phenyl)-6-(1H-pyrazol-4-yl)picolinamide]	16400
2860	O=C(Nc1ccc(N2CCOCC2)cc1N1CCCC1)c1ccc(-c2cn[nH]c2)o1 [I-23, N-(4-morpholino-2-(pyrrolidin-1-yl)phenyl)-5-(1H-pyrazol-4-yl)furan-2-carboxamide]	2270
740	CC1(O)CCN(c2cc(N3CCOCC3)ccc2NC(=O)c2cccc(-c3cn[nH]c3)n2)CC1 [I-16, N-(2-(4-hydroxy-4-methylpiperidin-1-yl)-4-morpholinophenyl)-6-(1H-pyrazol-4-yl)picolinamide]	1720
554	O=C(Nc1cc(N2CCOCC2)ccc1N1CCCCC1)c1csc(-c2cn[nH]c2)n1 [I-26, N-(5-morpholino-2-(piperidin-1-yl)phenyl)-2-(1H-pyrazol-4-yl)thiazole-4-carboxamide]	847
465	O=C(Nc1ccc(N2CCOCC2)cc1N1CCC(F)(F)CC1)c1csc(-c2cn[nH]c2)n1 [I-21, N-(2-(4,4-difluoropiperidin-1-yl)-4-morpholinophenyl)-2-(1H-pyrazol-4-yl)thiazole-4-carboxamide]	1000
173	O=C(Nc1ccc(N2CCOCC2)cc1N1CCOCC1)c1csc(-c2cn[nH]c2)n1 [I-15, N-(2,4-dimorpholinophenyl)-2-(1H-pyrazol-4-yl)thiazole-4-carboxamide]	484
105	O=C(Nc1cc(OCCN2CCOCC2)ccc1N1CCCCC1)c1csc(-c2cn[nH]c2)n1 [I-29, N-(5-(2-morpholinoethoxy)-2-(piperidin-1-yl)phenyl)-2-(1H-pyrazol-4-yl)thiazole-4-carboxamide]	51.2
